Assay results reported in ChEMBL document CHEMBL1201862, “PubChem BioAssay data set” (2004).
Calls of active or inactive are those of the source.

Experiments:
Protein RecA = biological target: T1, Protein RecA (Mycobacterium tuberculosis, UniProt P9WHJ3); assay: Fluorescence Cell-Free Homogeneous Dose Retest to Identify Inhibitors of RecA-Intein Splicing Activity. [Related pubchem assays (depositor defined):AID2097, AID2223, AID489010, AID492950]; format: functional
T1 sequence (P9WHJ3 whole entry): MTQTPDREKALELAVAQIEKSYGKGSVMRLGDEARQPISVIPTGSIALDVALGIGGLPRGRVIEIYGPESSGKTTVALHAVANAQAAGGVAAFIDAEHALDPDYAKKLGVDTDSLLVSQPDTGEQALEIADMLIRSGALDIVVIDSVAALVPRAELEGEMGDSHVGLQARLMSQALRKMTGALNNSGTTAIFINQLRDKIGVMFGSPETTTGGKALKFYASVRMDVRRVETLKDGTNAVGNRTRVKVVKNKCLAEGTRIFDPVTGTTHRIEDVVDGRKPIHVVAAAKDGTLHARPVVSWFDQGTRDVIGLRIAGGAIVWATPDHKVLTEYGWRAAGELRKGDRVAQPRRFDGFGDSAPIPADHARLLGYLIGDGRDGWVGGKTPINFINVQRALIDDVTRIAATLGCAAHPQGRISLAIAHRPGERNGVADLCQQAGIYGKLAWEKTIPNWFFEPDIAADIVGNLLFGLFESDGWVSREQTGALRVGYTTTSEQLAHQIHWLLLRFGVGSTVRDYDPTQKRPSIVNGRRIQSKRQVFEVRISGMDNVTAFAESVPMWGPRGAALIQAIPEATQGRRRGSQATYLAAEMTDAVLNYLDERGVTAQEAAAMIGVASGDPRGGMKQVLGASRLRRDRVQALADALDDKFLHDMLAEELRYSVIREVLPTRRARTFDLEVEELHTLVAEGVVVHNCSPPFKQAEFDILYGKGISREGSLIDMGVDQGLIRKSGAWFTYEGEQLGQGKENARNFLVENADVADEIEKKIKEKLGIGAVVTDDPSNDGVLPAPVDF

H9c2 = assay: cells; format: functional, cell-based; conditions: Rattus norvegicus, H9c2, Myocardium;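 also: confirmatory concentration-response retest of ultra-high-throughput screening hits for modulation of myocardial damage; cell death induced by hydrogen peroxide oxidative stress; compound pretreatment for 60 min then peroxide exposure for 2 h; potency is for protecting the cells against peroxide damage rather than for killing them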
[1] = biological target: T2, Heat shock factor protein 1 (Mus musculus, UniProt P38532); assay: HSF1 potentiators in luciferase reporter cells, confirmation, cell-based, NIH3T3, luminescence, dose retest (AID 435004); format: functional;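 also: stress induced by proteasome inhibitor MG132 added 30 min after compound; luciferase reporter driven by HSF1 response element in NIH3T3 cells; actives raise luminescence as potentiators of the MG132 stress response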
T2 sequence (P38532 whole entry): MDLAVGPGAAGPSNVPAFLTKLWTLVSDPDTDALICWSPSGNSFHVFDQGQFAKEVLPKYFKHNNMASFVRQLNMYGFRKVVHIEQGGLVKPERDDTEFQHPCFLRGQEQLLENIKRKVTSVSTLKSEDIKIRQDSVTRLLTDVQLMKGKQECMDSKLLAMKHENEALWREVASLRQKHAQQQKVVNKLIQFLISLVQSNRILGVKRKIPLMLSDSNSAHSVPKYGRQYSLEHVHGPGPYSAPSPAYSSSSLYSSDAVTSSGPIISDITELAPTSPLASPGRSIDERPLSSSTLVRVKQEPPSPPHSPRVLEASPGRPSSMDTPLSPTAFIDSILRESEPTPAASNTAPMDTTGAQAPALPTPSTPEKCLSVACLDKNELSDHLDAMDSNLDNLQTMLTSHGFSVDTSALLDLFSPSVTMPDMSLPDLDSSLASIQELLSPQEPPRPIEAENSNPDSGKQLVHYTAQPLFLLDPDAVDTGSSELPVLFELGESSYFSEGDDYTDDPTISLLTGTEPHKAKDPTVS

[2] = growth suppression of beta-catenin-knockout colon cells, dose response, cell-based, HCT116, human colon tumor (AID 1045); format: functional;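 also: HCT116 colon tumor cells with beta catenin knocked out; cells exposed to compound for 60 hours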
[3] = growth suppression of PTEN-null colon cells, dose response, cell-based, HCT116 PTEN knockout (AID 1047); format: functional;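 also: HCT116 colon tumor cells with PTEN knocked out; cells exposed to compound for 60 hours before readout; potency for loss of cell viability measured by luminescence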
[4] = biological target: T3, Corticotropin-releasing factor receptor 2/Corticotropin-releasing factor-binding protein (Homo sapiens, UniProt P24387+Q13324); assay: Dose Response confirmation of uHTS hits for small molecule antagonists of the CRF-binding protein and CRF-R2 receptor complex.; format: functional; conditions: read-out: IC50_Mean
T3 sequence (Q13324 whole entry): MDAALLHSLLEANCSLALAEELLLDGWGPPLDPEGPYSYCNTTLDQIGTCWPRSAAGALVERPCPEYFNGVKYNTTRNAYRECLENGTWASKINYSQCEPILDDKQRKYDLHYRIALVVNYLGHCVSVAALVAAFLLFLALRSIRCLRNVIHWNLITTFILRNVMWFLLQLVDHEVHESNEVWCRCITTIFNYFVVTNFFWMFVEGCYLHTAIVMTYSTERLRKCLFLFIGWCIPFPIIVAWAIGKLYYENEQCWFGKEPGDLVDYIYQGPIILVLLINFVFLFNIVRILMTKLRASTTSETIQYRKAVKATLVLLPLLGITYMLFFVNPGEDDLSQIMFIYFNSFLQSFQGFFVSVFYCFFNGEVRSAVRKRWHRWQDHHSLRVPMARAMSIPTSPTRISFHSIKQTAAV
T3 sequence (P24387 whole entry): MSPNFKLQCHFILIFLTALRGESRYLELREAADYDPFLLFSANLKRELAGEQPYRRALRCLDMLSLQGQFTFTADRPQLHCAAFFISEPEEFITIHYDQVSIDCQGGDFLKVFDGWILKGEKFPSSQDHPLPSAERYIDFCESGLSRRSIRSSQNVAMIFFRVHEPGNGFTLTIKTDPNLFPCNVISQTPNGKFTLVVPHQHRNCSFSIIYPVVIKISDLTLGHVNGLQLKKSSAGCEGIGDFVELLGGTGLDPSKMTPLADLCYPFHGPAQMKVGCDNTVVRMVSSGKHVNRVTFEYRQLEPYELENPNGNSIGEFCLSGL

[5] = biological target: T3, Corticotropin-releasing factor receptor 2/Corticotropin-releasing factor-binding protein; assay: activators of CRF receptor 2 with binding protein – uHTS hits, confirmation (AID 602473); format: functional; conditions: read-out: EC50_Mean

| SMILES | IC50 (H9c2) | IC50 [4] | EC50 [5] | also measured |
| --- | --- | --- | --- | --- |
| ONc1cccnc1-n1nc(C(F)(F)F)cc1C(F)(F)F | – | – | – | EC50 (Protein RecA): > 380 µM (inconclusive) |
| Oc1nc(N2CCN(c3ccccc3)CC2)nc2c1CCC2 | 54.4 µM (inactive) | – | – | EC50 [1]: > 260 µM (inactive) |
| O=C(N/N=C/c1ccccn1)c1cc(C2CC2)nc2ccccc12 | > 79 µM (inactive) | – | – | – |
| CC(C)(C)c1nn(-c2ccccc2)c2nc(O)c(CNCc3ccco3)cc12 | > 79 µM (inactive) | – | – | EC50 [2]: 9.2 µM (active); EC50 [3]: 7.45 µM (active) |
| CC1(NC(=O)CCc2nc(O)c3ccccc3n2)CCS(=O)(=O)C1 (stereo not drawn) | > 79 µM (inactive) | – | – | – |
| CCCCNc1nc(CC)c2c(c1C#N)CCCC2 | – | > 47.1 µM (inactive) | > 53 µM (inactive) | – |
| O=C(O)c1nn(CC(=O)N2CCN(c3ccccc3)CC2)c(=O)c2ccccc12 | 31 µM (inactive) | – | – | – |
| COC(=O)c1ccc(Cc2ccccc2)o1 | – | > 47.1 µM (inactive) | > 53 µM (inactive) | – |
| CCOC(=O)c1nnn(CC(=O)N2N=C(c3ccccc3)CC2c2ccccc2)c1C(=O)OCC (stereo not drawn) | – | > 47.1 µM (inactive) | > 53 µM (inactive) | – |
| COC(=O)c1ccc2nc3c(cc2c1)[C@@H]1CCN2C(=O)CCC[C@H](C3)[C@H]12 | – | > 47.1 µM (inactive) | > 53 µM (inactive) | – |
| O=c1cc(-c2ccc([N+](=O)[O-])cc2)c2ccc(O)cc2o1 | > 79 µM (inactive) | – | – | – |
| COC(=O)c1c(C)[nH]c(C(=O)COc2ccc3ccc(=O)oc3c2)c1C | > 79 µM (inactive) | – | – | – |
| CCSc1nnc(N)s1 | > 79 µM (inactive) | – | – | – |
| CC1=C(C(=O)OCc2ccccc2)C(/C=C/c2ccccc2)N2C(=O)CCSC2=N1 (stereo not drawn) | – | > 47.1 µM (inactive) | > 53 µM (inactive) | – |
| COCCn1c(-c2ccsc2)nc2c1c(=O)[nH]c(=O)n2CC(C)C | – | > 47.1 µM (inactive) | > 53 µM (inactive) | – |
| O=C(COc1cccc(NC(=O)c2cccc([N+](=O)[O-])c2)c1)c1ccc(F)cc1 | > 79 µM (inactive) | – | – | – |
| CCOC(=O)c1cccc(NS(=O)(=O)Cc2ccccc2)c1 | – | > 47.1 µM (inactive) | > 53 µM (inactive) | – |
| Cc1ccc(C(=O)COC(=O)CCN2C(=O)C3C4C=CC(C5CC45)C3C2=O)cc1 (stereo not drawn) | – | > 47.1 µM (inactive) | > 53 µM (inactive) | – |
| COc1ccc(S(=O)(=O)N(CCCN2CCCC2=O)Cc2cc3cc(C)c(C)cc3nc2O)cc1 | > 79 µM (inactive) | – | – | – |
| Cc1c(C=O)c2ccccn2c1C(=O)c1ccc(Cl)c([N+](=O)[O-])c1 | > 79 µM (inactive) | – | – | – |
| CC1CCCC(C)N1C(=O)COC(=O)c1cccs1 (stereo not drawn) | – | > 47.1 µM (inactive) | > 53 µM (inactive) | – |
